Values joined by “and” are separate entries in the source; they are usually repeats but may differ in a detail not shown here. Equal entries are not always repeated. Toxic doses and inconclusive results are not listed. Rule as the data show it: active = T/C of 150% or more; inactive = T/C below 125%.
System: L1210 leukemia ip in BDF1 mice, survival T/C
Assay: NCI In Vivo Anticancer Drug Screen. Data for tumor model L1210 Leukemia (intraperitoneal) in B6D2F1 (BDF1) mice
Conditions: endpoint: mean survival time, higher = longer survival
Summary of the method: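 Tumor was transplanted into mice, which were then dosed with test compound or vehicle alone. Survival was recorded for each group, and the treated figure was expressed relative to the control figure.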

[1] = dose: 100.0 mg/kg/injection, schedule: Q01DX001 (ip), vehicle: carboxymethylcellulose (CMC)
[2] = dose: 200.0 mg/kg/injection, schedule: Q01DX001 (ip), vehicle: carboxymethylcellulose (CMC)
[3] = dose: 400.0 mg/kg/injection, schedule: Q01DX001 (ip), vehicle: carboxymethylcellulose (CMC)
[4] = dose: 100.0 mg/kg/injection, schedule: Q01DX001 (ip), vehicle: saline
[5] = dose: 200.0 mg/kg/injection, schedule: Q01DX001 (ip), vehicle: saline
[6] = dose: 400.0 mg/kg/injection, schedule: Q01DX001 (ip), vehicle: saline
[7] = dose: 100.0 mg/kg/injection, schedule: Q04DX003 (ip), vehicle: saline
[8] = dose: 200.0 mg/kg/injection, schedule: Q04DX003 (ip), vehicle: saline
[9] = dose: 400.0 mg/kg/injection, schedule: Q04DX003 (ip), vehicle: saline
[10] = dose: 100.0 mg/kg/injection, schedule: Q01DX009 (ip), vehicle: saline with Tween-80
[11] = dose: 200.0 mg/kg/injection, schedule: Q01DX009 (ip), vehicle: saline with Tween-80
[12] = dose: 400.0 mg/kg/injection, schedule: Q01DX009 (ip), vehicle: saline with Tween-80
[13] = dose: 50.0 mg/kg/injection, schedule: Q01DX001 (ip), vehicle: saline
[14] = dose: 100.0 mg/kg/injection, schedule: Q01DX001 (ip), vehicle: saline with Tween-80
[15] = dose: 200.0 mg/kg/injection, schedule: Q01DX001 (ip), vehicle: saline with Tween-80
[16] = dose: 400.0 mg/kg/injection, schedule: Q01DX001 (ip), vehicle: saline with Tween-80
[17] = dose: 100.0 mg/kg/injection, schedule: Q04DX002 (ip), vehicle: saline with Tween-80
[18] = dose: 200.0 mg/kg/injection, schedule: Q04DX002 (ip), vehicle: saline with Tween-80
[19] = dose: 400.0 mg/kg/injection, schedule: Q04DX002 (ip), vehicle: saline with Tween-80

Measured: T/C

O=C1COC2CCCCC2O1 (centres undefined)
inactive: [1] 108 % of control | [2] 101 % of control | [3] 106 % of control

CCN(C(=O)N(CCCl)N=O)C1CCCCC1
inactive: dose: 75.0 mg/kg/injection, schedule: Q01DX001 (ip), vehicle: saline 97 % of control

CCOC(=O)NC(NC(=O)OCC)C(Cl)CC (centres undefined)
inactive: [4] 107 % of control | [5] 97 % of control | [6] 101 % of control

CCc1ccc(/C=C/c2ccc[nH]2)[n+](C)c1
inactive: dose: 5.0 mg/kg/injection, schedule: Q01DX001 (ip), vehicle: carboxymethylcellulose (CMC) 94 % of control | dose: 10.0 mg/kg/injection, schedule: Q01DX001 (ip), vehicle: carboxymethylcellulose (CMC) 94 % of control | dose: 20.0 mg/kg/injection, schedule: Q01DX001 (ip), vehicle: carboxymethylcellulose (CMC) 89 % of control | dose: 40.0 mg/kg/injection, schedule: Q01DX001 (ip), vehicle: carboxymethylcellulose (CMC) 96 % of control | dose: 80.0 mg/kg/injection, schedule: Q01DX001 (ip), vehicle: carboxymethylcellulose (CMC) 91 % of control

NC(=O)C(N)CCO (centres undefined)
inactive: dose: 75.0 mg/kg/injection, schedule: Q04DX003 (ip), vehicle: saline 104 % of control | dose: 150.0 mg/kg/injection, schedule: Q04DX003 (ip), vehicle: saline 104 % of control | dose: 300.0 mg/kg/injection, schedule: Q04DX003 (ip), vehicle: saline 100 % of control

NNC(=O)CCCCCC(=O)NN
inactive: dose: 100.0 mg/kg/injection, schedule: Q01DX009 (ip), vehicle: saline 93 % of control | [7] 94 % of control | dose: 200.0 mg/kg/injection, schedule: Q01DX009 (ip), vehicle: saline 95 % of control | [8] 96 % of control | dose: 400.0 mg/kg/injection, schedule: Q01DX009 (ip), vehicle: saline 106 % of control | [9] 102 % of control

Cc1cc2c3ccccc3[nH]c(=O)n2n1
inactive: [10] 96 % of control | [7] 100 % of control | [11] 95 % of control | [8] 96 % of control | [12] 86 % of control | [9] 87 % of control

CCCCn1cnc2c(SC)ncnc21
inactive: [13] 101 % of control | [4] 107 % of control | [5] 103 % of control

COc1ccc2ccccc2c1Br
inactive: [1] 98 % of control | [2] 98 % of control | [3] 98 % of control

O=C(NCCCCC(NC(=O)OCc1ccccc1)C(=O)NCCCCCCNCCCCCCNC(=O)C(CCCCNC(=O)OCc1ccccc1)NC(=O)OCc1ccccc1)OCc1ccccc1 (centres undefined)
inactive: [4] 94 % of control | [5] 92 % of control | [6] 96 % of control

CCOC(=O)c1cnc(SC)nc1Oc1ccccc1Cl
inactive: [14] 96 % of control | [10] 98 % of control | [15] 97 % of control | [11] 96 % of control | [16] 97 % of control | [12] 93 % of control

COc1cc2c(c(OC)c1OC)-c1ccc(O)c(=O)cc1[C@@H](NC(C)=O)CC2
inactive: dose: 75.0 mg/kg/injection, schedule: Q01DX001 (ip), vehicle: other 90 % of control | dose: 150.0 mg/kg/injection, schedule: Q01DX001 (ip), vehicle: other 119 % of control

C(=C1/CCCc2ccccc21)/c1ccccn1
inactive: dose: 100.0 mg/kg/injection, schedule: Q01DX001 (ip), vehicle: other 98 % of control | dose: 200.0 mg/kg/injection, schedule: Q01DX001 (ip), vehicle: other 103 % of control | dose: 400.0 mg/kg/injection, schedule: Q01DX001 (ip), vehicle: other 90 % of control

CCCCCC(N)C(=O)O (centres undefined)
inactive: dose: 12.5 mg/kg/injection, schedule: Q04DX002 (ip), vehicle: saline 104 % of control | dose: 25.0 mg/kg/injection, schedule: Q04DX002 (ip), vehicle: saline 100 % of control | dose: 50.0 mg/kg/injection, schedule: Q04DX002 (ip), vehicle: saline 107 % of control

CN=C(NCCCN1CCOCC1)c1ccc(NC(=O)c2ccc(C(=O)Nc3ccc(C(=NC)NCCCN4CCOCC4)cc3)cc2)cc1
inactive: dose: 12.5 mg/kg/injection, schedule: Q01DX Z (ip), vehicle: water 103 % of control | dose: 25.0 mg/kg/injection, schedule: Q01DX Z (ip), vehicle: water 113 % of control

COc1ccc(/C=C(\C(=O)c2ccc(O)cc2)c2ccccc2)cc1OC
inactive: [1] 94 % of control | [2] 89 % of control | [3] 89 % of control

CCOC(=O)C1Oc2ccccc2O1
inactive: [10] 105 % of control | [17] 113 % of control | [11] 99 % of control | [18] 100 % of control | [12] 101 % of control | [19] 97 % of control

O=C(CSc1ccc([N+](=O)[O-])cc1)c1ccccc1
inactive: [13] 104 % of control | [4] 98 % of control | [5] 91 % of control | [6] 96 % of control

CNC(CCc1ccccc1)C(=O)O (centres undefined)
inactive: dose: 100.0 mg/kg/injection, schedule: Q01DX009 (ip), vehicle: saline sonified 98 % of control | dose: 100.0 mg/kg/injection, schedule: Q04DX003 (ip), vehicle: saline with Tween-80 100 % of control | dose: 200.0 mg/kg/injection, schedule: Q01DX009 (ip), vehicle: saline sonified 101 % of control | dose: 200.0 mg/kg/injection, schedule: Q04DX003 (ip), vehicle: saline with Tween-80 99 % of control | dose: 400.0 mg/kg/injection, schedule: Q01DX009 (ip), vehicle: saline sonified 93 % of control | dose: 400.0 mg/kg/injection, schedule: Q04DX003 (ip), vehicle: saline with Tween-80 99 % of control

O=C(/C=C/c1ccccc1)NC(=S)Nc1ccc(O)cc1
inactive: [14] 96 % of control | [10] 95 % of control and 107 % of control | [17] 111 % of control and 88 % of control | [15] 98 % of control | [11] 96 % of control and 92 % of control | [18] 95 % of control and 111 % of control | [16] 96 % of control | [12] 101 % of control | [19] 95 % of control

CC(=O)OCCCC/C(=C/c1cc2ccccc2c2ccccc12)[N+](=O)[O-]
inactive: dose: 100.0 mg/kg/injection, schedule: Q01DX009 (ip), vehicle: carboxymethylcellulose (CMC) 100 % of control | dose: 266.0 mg/kg/injection, schedule: Q01DX009 (ip), vehicle: carboxymethylcellulose (CMC) 104 % of control | dose: 400.0 mg/kg/injection, schedule: Q01DX009 (ip), vehicle: carboxymethylcellulose (CMC) 104 % of control | dose: 600.0 mg/kg/injection, schedule: Q01DX009 (ip), vehicle: carboxymethylcellulose (CMC) 100 % of control

Nc1ncnc(N)c1NC(=O)Cc1cccc([N+](=O)[O-])c1
inactive: dose: 12.5 mg/kg/injection, schedule: Q01DX001 (ip), vehicle: Klucel (hydroxypropylcellulose) (HPC) 101 % of control | dose: 25.0 mg/kg/injection, schedule: Q01DX001 (ip), vehicle: Klucel (hydroxypropylcellulose) (HPC) 110 % of control | dose: 50.0 mg/kg/injection, schedule: Q01DX001 (ip), vehicle: Klucel (hydroxypropylcellulose) (HPC) 96 % of control and 103 % of control

COc1ccc(Nc2cc(=S)nc(N)[nH]2)cc1
inactive: dose: 100.0 mg/kg/injection, schedule: Q01DX Z (ip), vehicle: methylcellulose (MC) 100 % of control | dose: 200.0 mg/kg/injection, schedule: Q01DX Z (ip), vehicle: methylcellulose (MC) 115 % of control

From PubChem BioAssay AID248 (DTP/NCI, 2004)
